This is an account of results in PMC10539361, “Allosteric modulation of the fish taste receptor type 1 (T1R) family by the extracellular chloride ion” (Scientific Reports, 2023).

In experiment [1] the target is T1, mfT1R2a/mfT1R3 (Oryzias latipes, UniProt Q2MHK2+Q2MHK5).
T1 sequence (Q2MHK5 20-819): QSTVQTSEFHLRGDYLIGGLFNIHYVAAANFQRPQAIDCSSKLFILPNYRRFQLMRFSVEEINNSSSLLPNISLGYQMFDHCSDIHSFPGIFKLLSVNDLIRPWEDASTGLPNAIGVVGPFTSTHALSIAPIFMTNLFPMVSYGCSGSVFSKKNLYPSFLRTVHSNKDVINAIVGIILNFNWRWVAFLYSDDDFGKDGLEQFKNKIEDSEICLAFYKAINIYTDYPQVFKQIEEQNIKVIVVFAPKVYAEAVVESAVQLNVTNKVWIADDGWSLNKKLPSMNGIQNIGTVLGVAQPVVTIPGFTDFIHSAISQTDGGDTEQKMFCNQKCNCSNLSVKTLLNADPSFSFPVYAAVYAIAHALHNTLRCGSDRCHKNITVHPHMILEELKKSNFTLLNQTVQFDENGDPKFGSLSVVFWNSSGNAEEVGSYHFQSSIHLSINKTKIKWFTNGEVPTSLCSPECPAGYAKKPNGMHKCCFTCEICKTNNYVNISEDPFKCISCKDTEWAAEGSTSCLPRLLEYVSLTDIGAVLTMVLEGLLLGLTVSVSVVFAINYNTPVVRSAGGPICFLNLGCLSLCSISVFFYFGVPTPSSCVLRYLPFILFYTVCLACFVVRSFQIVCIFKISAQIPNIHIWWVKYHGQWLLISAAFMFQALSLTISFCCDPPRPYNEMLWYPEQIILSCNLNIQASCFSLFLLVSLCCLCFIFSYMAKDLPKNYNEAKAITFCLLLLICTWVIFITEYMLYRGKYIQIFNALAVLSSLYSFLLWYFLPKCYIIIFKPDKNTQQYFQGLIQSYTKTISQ
T1 sequence (Q2MHK2 20-853): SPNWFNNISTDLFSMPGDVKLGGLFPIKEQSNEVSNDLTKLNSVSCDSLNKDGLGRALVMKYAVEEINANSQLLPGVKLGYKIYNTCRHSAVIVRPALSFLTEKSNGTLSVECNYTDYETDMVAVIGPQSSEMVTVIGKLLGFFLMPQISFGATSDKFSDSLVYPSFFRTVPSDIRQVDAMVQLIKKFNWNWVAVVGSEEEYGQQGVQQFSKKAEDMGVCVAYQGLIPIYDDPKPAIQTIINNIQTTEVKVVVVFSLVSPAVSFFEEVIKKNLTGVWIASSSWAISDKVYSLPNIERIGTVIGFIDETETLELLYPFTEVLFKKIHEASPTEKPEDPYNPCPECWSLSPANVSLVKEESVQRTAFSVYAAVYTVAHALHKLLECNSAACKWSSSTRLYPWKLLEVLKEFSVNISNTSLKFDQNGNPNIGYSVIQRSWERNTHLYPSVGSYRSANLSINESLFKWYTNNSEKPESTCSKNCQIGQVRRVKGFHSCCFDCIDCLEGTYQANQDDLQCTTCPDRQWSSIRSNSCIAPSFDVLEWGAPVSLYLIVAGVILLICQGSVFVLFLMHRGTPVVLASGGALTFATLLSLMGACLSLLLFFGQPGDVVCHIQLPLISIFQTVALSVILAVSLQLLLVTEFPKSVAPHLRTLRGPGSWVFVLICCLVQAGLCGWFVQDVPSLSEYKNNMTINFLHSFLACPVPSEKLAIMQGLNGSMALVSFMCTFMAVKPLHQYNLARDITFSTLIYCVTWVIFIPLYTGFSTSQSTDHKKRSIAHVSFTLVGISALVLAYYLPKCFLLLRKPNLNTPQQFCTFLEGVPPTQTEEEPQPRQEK
The experiment in a line: Ca2+ mobilization dose-response assay, stable cells expressing mfT1R2a/mfT1R3 with G16gust44.
Protocol: The buffers with lower Cl^− were prepared by progressively replacing NaCl, KCl, CaCl2 and MgCl2 in the buffer with gluconate equivalents[20]. The pH was adjusted to 7.4 with NaOH. Ligands were diluted with the assay buffers at the desired concentrations.
Measurements of the responses of the cells by cell-based assay based on the intracellular Ca^2+ mobilization were carried out as described previously with some modifications[20],[34],[46],[47]. […] The cells were seeded in 96-well plates (clear-bottomed CellBIND surface plate, Corning, Glendale, AZ, USA) coated with ε-poly-L-lysine (Cosmo Bio, Tokyo, Japan) at approximately 70,000 cells per well. After 20 h, the medium was removed and replaced with high Cl^− buffer. After 3 h 30 min incubation at 27 °C, cells were loaded with 5 µM calcium-indicator dye Fluo-8 AM (AAT Bioquest, Sunnyvale, CA, USA) diluted in high Cl^− buffer. After incubation for 30 min at 27 °C, the cells were washed with buffers containing appropriate concentrations of Cl^−. The cellular assay was initiated after 3–5 min of resting and was completed within 5 min. The measurements were made using FlexStation 3 (Molecular Devices, Sunnyvale, CA, USA) at 27 °C. Fluorescence changes (i.e., excitation at 485 nm and emission at 525 nm with a cutoff at 515 nm) were monitored at 2 s intervals. A 100-µL aliquot of assay buffer supplemented with 2 × ligands was added at 20 s, and scanning was continued for an additional 40 s. The response of each well was determined as ∆RFU (delta relative fluorescent units), which was calculated as (maximum fluorescent value)—(minimum fluorescent value). […] Such normalized data from more than three independent experiments are reported as the mean ± standard error of the mean (SEM). Dose‒response fitting curves were calculated by Prism 9 (GraphPad Software, San Diego, CA) using nonlinear regression (log(agonist) vs. response—variable slope), based on the integrated data from the several independent experiments.

In experiment [2] the target is T1, mfT1R2a/mfT1R3. The experiment in a line: Effect of anions, cations and osmotic pressure on cellular responses, cells in 10 mM Cl- buffer, mfT1R2a/mfT1R3. The class given is cell-based, medaka fish. The note with it: for response to fixed concentration of L-Gln on coapplication: coapplied with 200 µM L-Gln, final [Cl-]o up to 60 mM. The procedure: Cells were seeded in 96-well plates coated with ε-poly-L-lysine at approximately 70,000 cells per well. […] Fluorescence changes were monitored at 2 s intervals, as described above. […] Three independent experiments were conducted for each receptor, and representative results are shown as the mean ± SEM (n = 3 replicates). Statistical tests were conducted using KyPlot version 6.0 (KyensLab Inc., Tokyo, Japan). Statistical significance was set at p < 0.05.

Turning to `C[C@H](N)C(=O)O` [L-Ala, L-alanine], in the experiment with mfT1R2a/mfT1R3 [1] (10 mM vs 141.4 mM Cl- buffer), the “EC50 in 10 mM Cl- buffer relative to high Cl- buffer” value is given as ~7 times higher.
Regarding `O=C([O-])[C@H](O)[C@@H](O)[C@H](O)[C@H](O)CO.[Na+]` [Na-gluconate, sodium gluconate], on mfT1R2a/mfT1R3 [2] (cells in 10 mM Cl- buffer), the “response to fixed concentration of L-Gln on coapplication” value is recorded as “did not enhance”.
As for `[Cl-].[Na+]` [NaCl], the “additional anion concentration needed to significantly increase the response intensity to L-Gln” value at mfT1R2a/mfT1R3 [2] (added to 10 mM Cl- buffer with 200 µM L-Gln) is 30 mM. The “response to fixed concentration of L-Gln on coapplication” value on mfT1R2a/mfT1R3 [2] (cells in 10 mM Cl- buffer) is listed as “enhanced”. For the same compound, the “cellular response to the salt alone” value on mfT1R2a/mfT1R3 [2] (without agonist, cells in 10 mM Cl- buffer) was “did not elicit”. In addition, the “[Cl-]o at which sensitivity is clearly reduced” value at mfT1R2a/mfT1R3 [1] (agonist L-Gln, buffers with 10-141.4 mM Cl-) was “below 80 mM”. On mfT1R2a/mfT1R3 [1] (sensitivity to L-Gln, Fig. 2A,D), the “[Cl-]o required for saturation of the sensitivity” value is 40 to 80 mM.
